This passage reports Ki and Emax results from patent US20080167319A1, “7-(4-(4-[3-CHLORO-2-(TRIFLUOROMETHYL)PHENYL]PIPERAZIN-1-YL)BUTOXY)-[1,8]-NAPHTHYRIDIN-2(1H)-ONE” (Pfizer Inc., priority 2007, published 2008).

For assay [1], the target named is T1, Serotonin 1A (5-HT1A) Receptor (Homo sapiens, UniProt P08908).
T1 construct: expressed in transfected cells; host or cells: HeLa cells
T1 sequence (P08908 1-422): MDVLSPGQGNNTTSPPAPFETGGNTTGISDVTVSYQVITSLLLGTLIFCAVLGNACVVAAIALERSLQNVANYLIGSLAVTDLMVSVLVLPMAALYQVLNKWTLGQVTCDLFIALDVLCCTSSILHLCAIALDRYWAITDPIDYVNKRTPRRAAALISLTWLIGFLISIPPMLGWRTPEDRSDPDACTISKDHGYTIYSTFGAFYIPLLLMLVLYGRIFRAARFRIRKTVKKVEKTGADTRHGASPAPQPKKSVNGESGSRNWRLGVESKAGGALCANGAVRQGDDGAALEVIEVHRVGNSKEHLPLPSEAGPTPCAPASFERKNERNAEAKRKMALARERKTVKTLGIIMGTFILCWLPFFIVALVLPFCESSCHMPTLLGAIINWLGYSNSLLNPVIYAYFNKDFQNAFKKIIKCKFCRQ
The assay is described as follows: Serotonin 1A (5-HT1A) Receptor Binding Assay ([3H]8-OH-DPAT, transfected HeLa membranes). To be noted: [3H]8-OH-DPAT 2.0 nM, transfected HeLa cell membranes; HCl salt tested. The method, then:
2) Serotonin 1A (5-HT1A) Receptor Binding Assay
The assay was conducted in membranes prepared from HeLa cells transfected with the cDNA for […] receptors using [^3H] 8-hydroxy-2-(di-n-propylamino)-tetraline ([^3H] 8-OH-DPAT, final concentration 2.0 nM) as reference […] receptor agonist. Assay buffer consisted of 50 mM Tris-HCl with 10 mM MgSO4, 0.5 mM EDTA and 0.1% ascorbic acid, at pH 7.4 (250 μL total volume). Triplicate samples containing (in order of addition) the test compound, 100× in 100% DMSO, [^3H] 8-OH-DPAT and cell homogenate was incubated for 2 hr at room temperature. Experiments were terminated by rapid filtration through Whatman GF/B glass fiber filters soaked in assay buffer with 0.3% PEI by washing three timnes with 1 mL of wash buffer (50 mM Tris-HCl, pH 7.4) using a Brandel MLR-96T cell harvester. Specific binding (85%) was determined in the presence of 10 μM 8-OH-DPAT.

A further assay has as its target T2, h5-HT1A (CHO p-5 cells) (Homo sapiens, UniProt P08908).
T2 construct: expressed in transfected cells
T2 sequence (P08908 1-422): T1 sequence (P08908 1-422)
The assay is described as follows: [3H]Thymidine Uptake Assay for Serotonin 1A Intrinsic Activity. To be noted: relative to 1 μM (+)-8-OH-DPAT classified as 100% response; HCl salt tested. In kind it is cell-based. The method, then: 4) [^3H]Thymidine Uptake Assay for Serotonin 1A Intrinsic Activity
CHO p-5 cells transfected with h5-HT1A cDNA were seeded into 96-well plates at a density of approximately […] cells/well. These were grown for 3 days at 37° C. in an incubator with alpha minimum essential medium (αMEM) and 10% fetal calf serum containing penicillin (100 U/mL) and streptomycin (100 μg/mL). The wells were then rinsed by washing twice with 200 μL of serum-free media, and 90 μL serum-free media was added to each well. The plates were incubated for two to three hours, then 10 μL of serum-containing media (positive control), vehicle (10 μL DMSO), negative control (10 μL of an antagonist in DMSO) or different concentrations of the test compound and standards (10 μL DMSO solution) in serum-free media were added to appropriate wells. The plates were incubated for 18 hrs. Then [^3H]thymidine was added (0.5 μCi/well in 10 μL of serum-free media) after which the plates were returned to the incubator. Four hours later, trypsin (0.25%) was added (100 μL/well), and plates were returned again to the incubator. The assay was terminated 1 hr later by rapid filtration through Whatman GF/C glass fiber filters. […] Radioactivity remaining on the filters was estimated with a Wallac 1205 Betaplate liquid scintillation counter (50% efficiency). […]

The target of assay [2] is T3, Dopamine D2 Receptor (hD2L) (Homo sapiens, UniProt P14416).
T3 construct: expressed in transfected cells; host or cells: CHO cells (CHO-hD2L)
The assay is described as follows: Dopamine D2 Receptor Binding Assay ([3H]spiperone, CHO-hD2L membranes). To be noted: [3H]spiperone 0.4 nM, HCl salt tested. The method, then:
1) Dopamine D2 Receptor Binding Assay
[^3H]Spiperone binding to a membrane preparation from CHO-hD2L cells was carried out in 250 μL of 50 mM Tris-HCl buffer containing 100 mM NaCl, 1 mM MgCl2 and 1% DMSO at pH 7.4. Duplicate samples containing (in order of addition) the test compound, 0.4 nM [^3H]spiperone and approximately 12 μg protein were incubated for 120 min at room temperature. Bound radioligand was separated by rapid filtration under reduced pressure through Whatman GF/B glass fiber filters previously treated with 0.3% polyethyleneimine (PEI). Radioactivity retained on the filter was determined by liquid scintillation spectrophotometry. Specific binding determined in the presence of 1 mM haloperidol was 95%.

For assay [3], the target named is T4, D2 receptor (CHO pro-5 cells) (Homo sapiens, UniProt P14416).
T4 construct: expressed in transfected cells; host or cells: CHO pro-5 cells
Briefly: [3H]Thymidine Uptake Assay for Dopamine D2 Intrinsic Activity. In kind it is cell-based. To be noted: relative to 1 μM Quinpirole classified as 100% intrinsic activity; HCl salt tested. The procedure: 3) [^3H]Thymidine Uptake Assay for Dopamine D2 Intrinsic Activity
The assay was conducted using CHO pro-5 cells containing the D2 receptor and conventional 96-well sterile plates. Serum was removed from the cells by washing the cells twice with 200 μL of serum-free media. 90 μL serum-free media was added to each well. The plates ware incubated for two to three hours. 10 μL of serum-containing media, as a positive control, vehicle (serum-free media), antagonist control (haloperidol), or the test compound, and standards (10 μL of a 10 μM solution for a final concentration of 1 μM) in serum-free media were added to wells. The plates were returned to the incubator. Eighteen hours later [^3H]thymidine was added (0.5 μCi/well in 10 μL of serum-free media) and the plates were returned to the incubator. Four hours later trypsin (0.25%) was added (100 μL/well). The plates were returned to the incubator, once again. One hour later the assay was terminated by rapid filtration through Whatman GF/C glass fiber filters. Filters were washed four times with […] of 50 mM Tris-HCl pH 7.0 buffer, for example, using a Brandel MLR-96T cell harvester. Radioactivity remaining on the filters was estimated with a Wallac 1205 Betaplate liquid scintillation counter (50% efficiency). Intrinsic activity is defined as total uptake (1 μM Quinpirole) minus serum-free media (no uptake). […]

T4 sequence (P14416 whole entry): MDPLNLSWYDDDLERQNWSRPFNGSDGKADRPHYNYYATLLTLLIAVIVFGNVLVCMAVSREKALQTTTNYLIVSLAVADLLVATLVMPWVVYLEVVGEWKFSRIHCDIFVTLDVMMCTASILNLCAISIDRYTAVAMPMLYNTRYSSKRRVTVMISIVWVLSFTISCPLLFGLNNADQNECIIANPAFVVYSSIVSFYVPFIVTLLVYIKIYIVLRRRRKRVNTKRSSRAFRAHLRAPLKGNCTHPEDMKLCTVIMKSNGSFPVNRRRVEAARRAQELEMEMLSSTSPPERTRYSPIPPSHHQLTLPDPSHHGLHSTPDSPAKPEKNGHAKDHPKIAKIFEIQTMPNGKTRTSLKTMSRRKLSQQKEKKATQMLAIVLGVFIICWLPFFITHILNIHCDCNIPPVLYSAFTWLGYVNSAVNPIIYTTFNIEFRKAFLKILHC
T3 sequence (P14416 whole entry): as above

By Ki is commonly meant the equilibrium dissociation constant of an inhibitor or competing ligand from its target. Usually Emax stands for the maximal effect, on the per cent scale that the assay sets. Turning to `O=c1ccc2ccc(OCCCCN3CCN(c4cccc(Cl)c4C(F)(F)F)CC3)nc2[nH]1` [compound of formula (I), 7-(4-{4-[3-chloro-2-(trifluoromethyl)phenyl]piperazine-1-yl}butoxy)-[1,8]-naphthyridin-2(1H)-one], the Ki in assay [1] came to 4 nM; in assay [2], 3.9 nM. Moreover, the Emax at h5-HT1A (CHO p-5 cells) amounted to 90%; in assay [3] it was 55%.
